Data set [1] in a line: Geometric particle size of rifampicin blends and starting materials (HELOS laser diffraction, RODOS). To be noted: Table 3; for X10 / X50 / X90: particle size distribution. It counts as physicochemical. As for the experimental part:
The geometric particle size of the powder blends was measured using laser diffraction (HELOS, Sympatec, Germany) for the pre-blend and after each blending cycle. Measurements were done using a RODOS powder disperser at a pressure drop of 1 bar and rotor speed set at 50% (FIG. 6). […] The particles diameter is expressed as the mean Xn diameter values, where n % of the particles have a diameter≤X. Jaffari, S., et al. Rapid Characterisation of the Inherent Dispersibility of Respirable Powders Using Dry Dispersion Laser Diffraction. Int. J. Pharm. […] A measure of particle size distribution breadth is represented by the calculated factor “Span”. This was calculated using the following expression: (X90−X10)/X50.
Particle size analysis was conducted on blended materials and compared to pre-blend and lactose/magnesium stearate controls.

Data set [2] can be described thus: Particle size of budesonide blend starting materials (HELOS/RODOS laser diffraction). It counts as physicochemical. Particulars: RODOS laser diffraction, 3 bar, 50% rotation. The protocol:
Particle size distribution of alpha-lactose monohydrate, magnesium stearate and budesonide were analyzed using a laser diffractometer (Sympatec, Clausthal-Zellerfeld, Germany). […] About 0.5 g of each component was carefully loaded on the turntable of the vibratory feeding module. Samples were dispersed at 3 bar and 50% rotation (FIG. 11). Data was acquired using Windox software (Sympatec, Clausthal-Zellerfeld, Germany) and volume-based size distribution was calculated using Fraunhofer theory.
Table 6 lists the particle size distribution for starting materials as determined by laser diffraction. Budesonide was confirmed to be sufficiently micronized (e.g. less than 5 μm). Magnesium stearate and lactose size distributions were within the size ranges provided by manufacturers.

The text below walks through data of patent publication US20250235399A1, “METHODS OF PREPARING CARRIER-BASED DRY POWDERS FOR INHALATION” (Board of Regents, The University of Texas System, priority 2022, published 2025).

Consider Magnesium stearate, for which, in data set [1], the “Span ((X90-X10)/X50)” value came to 1.87, the X10 is recorded as 2.08 μm, the X50 worked out at 8.14 μm and the X90 is 17.34 μm. Also, in data set [2], the D10 came out at 1.29 μm, the D50 is recorded as 4.45 μm and the D90 worked out at 9.93 μm.

Regarding `O.OC[C@H]1O[C@@H](O[C@H]2[C@H](O)[C@@H](O)[C@@H](O)O[C@@H]2CO)[C@H](O)[C@@H](O)[C@H]1O` [Lactose, Alpha-lactose monohydrate], in data set [2], the D10 stood at 32.09 μm, the D50 was determined as 80.34 μm and the D90 worked out at 111.84 μm.

Regarding `O.OC[C@H]1O[C@@H](O[C@H]2[C@H](O)[C@@H](O)[C@@H](O)O[C@@H]2CO)[C@H](O)[C@@H](O)[C@H]1O` [Lactohale 206], in data set [1], the X10 was found to be 1.91 μm, the X50 turned out to be 4.15 μm and the X90 was determined as 116.14 μm.
